Data as given in patent US20230203081A1, “LINCOSAMIDE ANTIBIOTICS AND USES THEREOF” (President and Fellows of Harvard College, priority 2020, published 2023).
In brackets after ≈: the same amount, converted by molar mass. Where two headings read alike, the source gives them in different places.

What was measured:
Type in all cases: cell-based
S. aureus ATCC 29213 = assay: MIC (broth microdilution or agar dilution, CLSI); conditions: Staphylococcus aureus, ATCC29213, S. aureus HAV#001, ATCC 29213, MP-549; read-out: MIC
In short: (§1)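 Per CLSI, MICs by broth microdilution or agar dilution; strains other than streptococci and anaerobes were sub-cultured overnight at 35° C on blood agar, with a final broth inoculum of 5×10^5 CFU/mL.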

S. pyogenes ATCC 19615 = assay: MIC (broth microdilution or agar dilution, CLSI); conditions: Streptococcus pyogenes, ATCC19615, S. pyogenes HAV#004, ATCC 19615; read-out: MIC
In short: as §1

S. aureus ATCC 700699 = assay: MIC (broth microdilution or agar dilution, CLSI); conditions: Staphylococcus aureus
In short: as §1

E. coli LptD = assay: MIC (broth microdilution or agar dilution, CLSI); conditions: Escherichia coli, E. coli HAV#040; LptD; read-out: MIC
In short: as §1

E. coli ATCC 25922 = assay: MIC (broth microdilution or agar dilution, CLSI); conditions: Escherichia coli, ATCC25922, E. coli HAV#006, ATCC 25922
In short: as §1

K. oxytoca Clinical = assay: MIC (broth microdilution or agar dilution, CLSI); conditions: Klebsiella oxytoca; K. oxytoca HAV#450; Clinical; read-out: MIC
In short: as §1

S. pneumoniae ATCC 49619 = assay: MIC (broth microdilution or agar dilution, CLSI); conditions: Streptococcus pneumoniae
In short: as §1

S. pneumoniae ATCC 6303 = assay: MIC (broth microdilution or agar dilution, CLSI); conditions: Streptococcus pneumoniae, ATCC6303; S. pneumoniae HAV#351, ATCC 6303; read-out: MIC
In short: as §1

[1] = test system: S. pyogenes MMX 946; cErmB; assay: MIC (broth microdilution or agar dilution, CLSI); conditions: Streptococcus pyogenes; S. pyogenes HAV#035, MMX 946; cErmB, mac-resistant; read-out: MIC
In short: as §1

[2] = test system: S. aureus ATCC BAA-1707 (MRSA); assay: MIC (broth microdilution or agar dilution, CLSI); conditions: Staphylococcus aureus; S. aureus HAV#016, ATCC BAA-1707; MRSA; read-out: MIC
In short: as §1

S. aureus BAA 977 iErmA = assay: microbe, parasite or virus in culture; conditions: Staphylococcus aureus, BAA-977 / MRSA
In short: as §1

S. aureus MP-549 msrA = assay: microbe, parasite or virus in culture; conditions: Staphylococcus aureus, MP549MSRA, S. aureus HAV#032, MP-549, MSR(A)
In short: as §1

E. coli armA = assay: microbe, parasite or virus in culture; conditions: Escherichia coli, E. coli HAV#056; Clinical, armA
In short: as §1

E. coli ΔTolC = assay: microbe, parasite or virus in culture; conditions: Escherichia coli, E. coli HAV#038; ΔTolC
In short: as §1

[3] = test system: E. faecalis MMX 847; cErmB; assay: MIC (broth microdilution or agar dilution, CLSI); conditions: Enterococcus faecalis; E. faecalis HAV#036, MMX 847; mac-resistant, cErmB; read-out: MIC
In short: as §1

S. aureus MMX 3035 cErmA = assay: MIC (broth microdilution or agar dilution, CLSI); conditions: Staphylococcus aureus, MMX3035CERMA; S. aureus HAV#031, MMX 3035; cErmA; read-out: MIC
In short: as §1

K. pneumoniae ATCC 10031 = assay: MIC (broth microdilution or agar dilution, CLSI); conditions: Klebsiella pneumoniae, ATCC10031, K. pneumoniae HAV#008, ATCC 10031; read-out: MIC
In short: as §1

[4] = test system: S. pneumoniae MMX 3028 cErmB; assay: MIC (broth microdilution or agar dilution, CLSI); conditions: Streptococcus pneumoniae, MMX3028CERMB; S. pneumoniae HAV#033; MMX 3028, cErmB; read-out: MIC
In short: as §1

S. aureus hVISA = assay: MIC (broth microdilution or agar dilution, CLSI); conditions: Staphylococcus aureus; S. aureus HAV#204, hVISA; read-out: MIC
In short: as §1

[5] = test system: S. pneumoniae MMX 3031 cMefA; assay: MIC (broth microdilution or agar dilution, CLSI); conditions: Streptococcus pneumoniae, MMX3031CMEFA, S. pneumoniae HAV#034; MMX 3031, cMefA; read-out: MIC
In short: as §1

E. faecalis ATCC 29212 = assay: MIC (broth microdilution or agar dilution, CLSI); conditions: Enterococcus faecalis, ATCC29212, E. faecalis HAV#005, ATCC 29212; read-out: MIC
In short: as §1

[6] = ATCC49619, S. pneumoniae HAV#003, ATCC 49619, read-out: MIC
[7] = S. aureus HAV#202, ATCC 700699 (VISA), read-out: MIC

SMILES | MIC (S. aureus ATCC 29213) | MIC (S. pyogenes ATCC 19615) | MIC (E. coli LptD) | MIC (E. coli ATCC 25922; read-out: MIC) | MIC (K. oxytoca Clinical) | MIC (S. pneumoniae ATCC 49619; [6]) | MIC (S. pneumoniae ATCC 6303) | MIC [1] | MIC [2] | MIC (S. aureus BAA 977 iErmA) | MIC (E. coli armA) | MIC (E. coli ΔTolC) | MIC [3] | MIC (S. aureus MMX 3035 cErmA) | MIC (S. aureus ATCC 700699; [7]) | MIC [4] | MIC (S. aureus hVISA) | MIC [5] | MIC (E. faecalis ATCC 29212) | MIC (S. aureus MP-549 msrA; read-out: MIC) | other results
CO/N=C(\C(=O)N[C@@H]1C(=O)N2C(C(=O)O)=C(CSc3nc(=O)c(=O)[nH]n3C)CS[C@H]12)c1csc(N)n1 [Ceftriaxone] | 2 µg/mL (≈ 3.61 µM) | 0.06 µg/mL (≈ 0.108 µM) | ≤ 0.06 µg/mL | 0.125 µg/mL (≈ 0.225 µM) | 64 µg/mL (≈ 115 µM) | 0.06 µg/mL (≈ 0.108 µM) | 0.06 µg/mL (≈ 0.108 µM) | ≤ 0.03 µg/mL | 64 µg/mL (≈ 115 µM) | 2 µg/mL (≈ 3.61 µM) | ≤ 0.06 µg/mL | ≤ 0.06 µg/mL | – | – | – | – | – | – | – | – | MIC (S. aureus ATCC 700699; ATCC 700699 / VISA): > 128 µg/mL; MIC (S. aureus MP-549 msrA): > 128 µg/mL
CC[C@H]1OC(=O)[C@H](C)[C@@H](O[C@H]2C[C@@](C)(OC)[C@@H](O)[C@H](C)O2)[C@H](C)[C@@H](O[C@@H]2O[C@H](C)C[C@H](N(C)C)[C@H]2O)[C@](C)(O)C[C@@H](C)CN(C)[C@H](C)[C@@H](O)[C@]1(C)O [Azithromycin] | 1 µg/mL (≈ 1.34 µM) | 0.06 µg/mL (≈ 0.0801 µM) | ≤ 0.03 µg/mL | 4 µg/mL (≈ 5.34 µM) | 16 µg/mL (≈ 21.4 µM) | – | 2 µg/mL (≈ 2.67 µM) | > 64 µg/mL | 1 µg/mL (≈ 1.34 µM) | > 64 µg/mL | 4 µg/mL (≈ 5.34 µM) | 1 µg/mL (≈ 1.34 µM) | > 64 µg/mL | > 64 µg/mL | > 64 µg/mL | > 64 µg/mL | > 64 µg/mL | 16 µg/mL (≈ 21.4 µM) | 8 µg/mL (≈ 10.7 µM) | > 64 µg/mL | MIC (K. pneumoniae ATCC 10031): 4 µg/mL (≈ 5.34 µM); MIC (S. pneumoniae ATCC 49619; ATCC49619): 0.125 µg/mL (≈ 0.167 µM)
CC(=O)NC[C@H]1CN(c2ccc(N3CCOCC3)c(F)c2)C(=O)O1 [Linezolid] | 2 µg/mL (≈ 5.93 µM) | 2 µg/mL (≈ 5.93 µM) | 32 µg/mL (≈ 94.9 µM) | – | – | 1 µg/mL (≈ 2.96 µM) | 1 µg/mL (≈ 2.96 µM) | 1 µg/mL (≈ 2.96 µM) | 2 µg/mL (≈ 5.93 µM) | 2 µg/mL (≈ 5.93 µM) | – | 8 µg/mL (≈ 23.7 µM) | 2 µg/mL (≈ 5.93 µM) | 2 µg/mL (≈ 5.93 µM) | 2 µg/mL (≈ 5.93 µM) | 0.5 µg/mL (≈ 1.48 µM) | 2 µg/mL (≈ 5.93 µM) | 1 µg/mL (≈ 2.96 µM) | 2 µg/mL (≈ 5.93 µM) | 4 µg/mL (≈ 11.9 µM) | MIC (E. coli ATCC 25922): > 128 µg/mL; MIC (S. aureus BAA 977 iErmA; 24 h): 4 µg/mL (≈ 11.9 µM)
